Marks after values point to notes of the source that are not given here. Ends that are not written are not given here.
Legend:
[1] = test system: PBMCs from dogs immunised with CDV; experiment: T-cell proliferation after in vitro stimulation of PBMC with peptide pools, tested with autologous APCs and single peptides; assay type: cell-based, dog; settings: for reaction with peripheral blood mononuclear cells: dogs of various breeds immunised with CDV
Description: An alternate strategy was used to increase the precursor frequency of specific T cells recognising the CDV peptides. Fresh PBMCs obtained from these hyperimmunised dogs were subjected to stimulation in vitro with pools of all 94 peptides for 30 minutes at 37° C. The cells were then washed to remove any excess peptides and cultured for 7 days. This population of T cells was then tested with autologous APCs with every single peptide as the antigen.
To confirm this observation, the same four dogs were bled again, five weeks after receiving the dose of killed virus. The PBMCs were stimulated in vitro with pools of either all 94 peptides or peptides 21-40 (because most of the activity was in this region) and after 7 days of culture the stimulated T cells were tested against individual peptides. Significant stimulatory indices were obtained with all peptides, confirming the above results. Four more dogs which received only one dose of 3 in 1 vaccine were tested using the in vitro stimulation method and all four dogs responded to the majority of peptides shown in Table 2.
Once again the same peptides and one additional peptide P32 were tested on cells from additional dogs.

LHRH [2] = experiment: Trial K9-8: antibody response to LHRH by ELISA; assay type: in vivo, dog; settings: for antibody responses to LHRH: Trial K9-8, T-cell-LHRH constructs named by their T-cell epitope
Description: A total of 35 dogs mixed sex were used in this trial. All had been previously vaccinated with a live CDV vaccine but had not been vaccinated against LHRH.
The T-Helper epitopes were linked to a truncated form of LHRH, containing amino acids 2 to 10 of the native 10 amino acid sequence, as shown below:
All vaccines were formulated as for Example 2, ie each 1 mL dose of vaccine contained 40nmoles of peptide, 150 μg Iscomatrix™, and thiomersal as preservative.
Where dogs were vaccinated with a pool of peptides, the concentration of each peptide was adjusted to give equal concentrations and a total amount of 40 nmoles of LHRH epitope per 1 mL dose.
All dogs were vaccinated with a 1 mL dose, delivered in the scruff of the neck. Vaccinations were given at 0 and 4 weeks and venous blood samples were obtained at intervals during the trial.
Effective T-cell help was determined by measuring the antibody response to LHRH by ELISA. Biological effectiveness of the peptide based vaccine was determined by measuring the levels of progesterone in female dogs and testosterone in male dogs.

[3] = test system: PBMCs obtained from dogs immunised with peptide vaccines; experiment: In vitro T cell proliferation assay without enrichment, PBMCs of peptide-vaccinated dogs against Th-epitope and truncated versions; assay type: cell-based, dog; settings: dogs of Example 2 immunised with the respective Th-epitope-LHRH; FIGS. 2-4
Description: The assay was carried out without the enrichment of PBMCs. PBMCs obtained from Ficoll gradient purification were directly tested against the respective Th-epitope and its truncated versions. […] Truncated versions of the respective Th-epitopes were also tested to more closely define the T-cell activity within the sequences. […] This implies that the T-cell activity is towards the N-terminus or middle of the 17-residue peptide.

LHRH [4] = experiment: Trial K9-5: antibody response to LHRH by ELISA; assay type: in vivo, dog
LHRH [5] = experiment: Trial in BALB/c mice: antibody response to LHRH by ELISA; assay type: in vivo; settings: for antibody titres to LHRH: BALB/c mice
Description: The canine vaccines with CDV-F derived Th-epitopes and LHRH used in Example 3 were also used to immunise BALB/c mice to investigate if the Th-epitopes would be functional in a different animal species.
All vaccines were formulated as for Example 3 except that they were diluted further so that 100 μl doses contained 2.7 nmoles of peptide and 10 μg of Iscomatrix™ and thiomersol as preservative.
Mice were vaccinated with 100 μl of the vaccine at the base of tail. Vaccinations were given at 0 and 4 weeks and animals bled at intervals after each vaccination from the retro-orbital plexus. Effective T-cell help was determined by measuring the antibody response to LHRH by ELISA.

[6] = Table 1, Beagle Foxhound (Dog #18), hyperimmunised, PBMC stimulated with pool of all 94 peptides, 7 days culture
[7] = Table 1, Beagle Foxhound (Dog #19)
[8] = Table 1, Beagle Foxhound (Dog #20)
[9] = Table 1, Beagle Foxhound (Dog #21)
[10] = Table 2, Beagle Foxhound (Dog #71), one dose of 3 in 1 vaccine
[11] = Table 2, Beagle Foxhound (Dog #72), one dose of 3 in 1 vaccine
[12] = Table 2, Beagle Foxhound (Dog #73), one dose of 3 in 1 vaccine
[13] = Table 3, Kelpie Foxhound (Dog #125)
[14] = Table 2, Beagle Foxhound (Dog #70), one dose of 3 in 1 vaccine
[15] = 2 weeks post second vaccination, Mouse 1
[16] = 2 weeks post second vaccination, Mouse 2
[17] = 2 weeks post second vaccination, Mouse 3
[18] = 2 weeks post second vaccination, Mouse 4
[19] = 4 weeks post first vaccination, Mouse 1, 2.7 nmoles peptide, base of tail
[20] = 4 weeks post first vaccination, Mouse 2
[21] = 4 weeks post first vaccination, Mouse 3
[22] = 4 weeks post first vaccination, Mouse 4

| Substance | Stimulatory index [1, 6] | Stimulatory index [1, 7] | Stimulatory index [1, 8] | Stimulatory index [1, 9] | antibody responses to LHRH (LHRH [2]) | Stimulatory index ([1]; Table 5, Border Collie) | Stimulatory index ([1]; Table 5, Fox Terrier) | Stimulatory index ([1]; Table 5, Grey hound) | Stimulatory index ([1]; Table 5, Kelpie Pointer) | Stimulatory index ([1]; Table 5, Poodle Shitzu) | Stimulatory index ([1]; Table 5, Terrier Cross) | antibody titres to LHRH (LHRH [5]) | other results |
| --- | --- | --- | --- | --- | --- | --- | --- | --- | --- | --- | --- | --- | --- |
| AELGEYEKLLNSVLEPI (canine distemper virus; synthetic peptide from canine distemper virus fusion protein (CDV-F) designated peptide P27) | 3.3 | 34 | 6.7 | 14.8 | Strong antibody responses | – | – | – | – | – | – | – | Stimulatory index [1, 10]: 2.7; Stimulatory index [1, 11]: 3.5; Stimulatory index [1, 12]: 4.8; Stimulatory index [1, 13]: 4.5; Stimulatory index ([1]; Table 3, Kelpie Foxhound (Dog #126)): 8.5; Stimulation indices to Th-epitope and its truncated versions [3]: the 17 residue long peptide was a better simulator than the 15-mer |
| ALNNRFQIKGVELKS-(NANP)3 (ALNNRFQIKGVELKSNANPNANPNANP; synthetic control peptide) | – | – | – | – | – | – | – | – | – | – | – | – | Anti LHRH Titres, 2 wks post boost, Average (LHRH [4]; group average): 1978; Anti LHRH Titres, 6 wks post boost, Average (LHRH [4]; group average): 1941; Anti LHRH Titres, Prebleeds, Average (LHRH [4]; group average): 1794; Anti LHRH Titres, 2 wks post boost, Range (LHRH [4]; group range): 1975-1982; Anti LHRH Titres, 6 wks post boost, Range (LHRH [4]; group range): 1936-1947; Anti LHRH Titres, Prebleeds, Range (LHRH [4]; group range): 1258-2559 |
| KLIPNASLIENCTKAEL (canine distemper virus; synthetic peptide from canine distemper virus fusion protein (CDV-F) designated peptide P25) | 3.2 | 11.9 | 4.5 | 17 | Strong antibody responses | <2 | 2.6 | <2 | 2.6 | <2 | <2 | – | Stimulatory index [1, 14]: 1.5; Stimulatory index [1, 10]: 2.9; Stimulatory index [1, 11]: 2; Stimulatory index [1, 12]: 12; Stimulation indices to Th-epitope and its truncated versions [3]: the full sequence of 17 residues was better than the shorter peptides of 15 and 12 residues |
| P8-LHRH: T-helper epitope P8 linked to truncated LHRH, amino acids 2 to 10 (SEQ ID NO: 29) (HWSYGLRPG; not fully specified (N-terminus); ends and bridges not checked; also: linked to T-helper epitope P8; listed as Homo sapiens) [Peptide P8-LHRH] | – | – | – | – | Low to undetectable antibody responses | – | – | – | – | – | – | – | Anti-LHRH antibody titre (LHRH [5]; [15]): <100; Anti-LHRH antibody titre (LHRH [5]; [16]): <100; Anti-LHRH antibody titre (LHRH [5]; [17]): <100; Anti-LHRH antibody titre (LHRH [5]; [18]): <100; Anti-LHRH antibody titre (LHRH [5]; [19]): <100; Anti-LHRH antibody titre (LHRH [5]; [20]): <100; Anti-LHRH antibody titre (LHRH [5]; [21]): <100; Anti-LHRH antibody titre (LHRH [5]; [22]): <100 |
| P35-LHRH: T-helper epitope P35 linked to truncated LHRH, amino acids 2 to 10 (SEQ ID NO: 29) (HWSYGLRPG; not fully specified (N-terminus); ends and bridges not checked; also: linked to T-helper epitope P35; listed as Homo sapiens) [Peptide P35-LHRH] | – | – | – | – | – | – | – | – | – | – | – | – | Anti-LHRH antibody titre (LHRH [5]; [15]): 1,412; Anti-LHRH antibody titre (LHRH [5]; [16]): 800; Anti-LHRH antibody titre (LHRH [5]; [17]): <100; Anti-LHRH antibody titre (LHRH [5]; [18]): <100; Anti-LHRH antibody titre (LHRH [5]; 2 weeks post second vaccination, Mouse 5): <100; Anti-LHRH antibody titre (LHRH [5]; [19]): <100; Anti-LHRH antibody titre (LHRH [5]; [20]): <100; Anti-LHRH antibody titre (LHRH [5]; [21]): <100; Anti-LHRH antibody titre (LHRH [5]; [22]): <100; Anti-LHRH antibody titre (LHRH [5]; 4 weeks post first vaccination, Mouse 5): <100; Anti LHRH Titres, 2 wks post boost, GMT (LHRH [2]; group GMT): 103085; Anti LHRH Titres, 4 wks after primary, GMT (LHRH [2]; group GMT): 2469; Anti LHRH Titres, 4 wks post boost, GMT (LHRH [2]; group GMT): 58002; antibody response to the B-cell epitope (LHRH) (LHRH [4]; Trial K9-5, text): strong antibody responses |
| PRTSDRPVSYTMNRTRS (canine distemper virus; synthetic peptide from canine distemper virus fusion protein (CDV-F) designated peptide P8) | – | – | – | – | – | 2 | <2 | 2 | 2.8 | 100 | <2 | undetectable levels | Stimulatory index [1, 14]: 2.2 |
| PRYIATNGYLISNFDES (canine distemper virus; synthetic peptide from canine distemper virus fusion protein (CDV-F) designated peptide P62) | <2 | 51 | 5.6 | 4.2 | Strong antibody responses | <2 | <2 | <2 | <2 | 24 | <2 | undetectable levels | Stimulatory index [1, 10]: 3; Stimulatory index [1, 13]: 2.4 |
| SPDKLLTFIASDTCPLV (canine distemper virus; synthetic peptide from canine distemper virus fusion protein (CDV-F) designated peptide P75) | – | – | – | – | Strong antibody responses | <2 | <2 | <2 | <2 | 10 | <2 | low antibody titres | Stimulatory index ([1]; Table 4, Beagle Foxhound #18): 2.5; Stimulatory index ([1]; Table 4, Beagle Foxhound #21): 7.2; Stimulatory index ([1]; Table 4, Poodle Shitzu): 10; reaction with peripheral blood mononuclear cells [1]: react strongly |
| SSKTQTHTQQDRPPQPS (canine distemper virus; synthetic peptide from canine distemper virus fusion protein (CDV-F) designated peptide P2) | 2* | <2 | 8 | 3.9 | Low to undetectable antibody responses | 2 | <2 | <2 | 2.6 | 140 | <2 | undetectable levels | – |
| TSTIINQSPDKLLTFIA (canine distemper virus; synthetic peptide from canine distemper virus fusion protein (CDV-F) designated peptide P74) | – | – | – | – | – | <2 | <2 | <2 | <2 | 4 | <2 | – | Stimulatory index ([1]; Table 4, Beagle Foxhound #20): 1.7; Stimulatory index ([1]; Table 4, Beagle Foxhound #21): 6.0; Stimulatory index ([1]; Table 4, Poodle Shitzu): 4.0; reaction with peripheral blood mononuclear cells [1]: react strongly |
| YKIMTRPSHQYLVIKLI (canine distemper virus; synthetic peptide from canine distemper virus fusion protein (CDV-F) designated peptide P23) | – | – | – | – | – | – | – | – | – | – | – | – | Stimulatory index [1, 13]: 3.2 |

From patent US7572454B2, “T helper cell epitopes” (priority 1999, dated 2009)
